From patent US20260207554A1 (priority 2022, published 2026)
Structures can show the parent of a compound that is named as a salt.

Tested on: adult nondependent recreational opioid users
Settings: in vivo

| SMILES | Skin and subcutaneous tissue disorders, subjects with TEAE n (%) (human) | Abdominal pain upper, subjects with TEAE n (%) (human, po) | Dizziness, subjects with TEAE n (%) (human, po) | Gastrointestinal disorders, subjects with TEAE n (%) (human, po) | Generalised tonic-clonic seizure, subjects with TEAE n (%) (human, po) | Headache, subjects with TEAE n (%) (human, po) | Hiccups, subjects with TEAE n (%) (human, po) | Nervous system disorders, subjects with TEAE n (%) (human, po) | Number of subjects with at least one TEAE, n (%) (human, po) | Somnolence, subjects with TEAE n (%) (human, po) | Tension headache, subjects with TEAE n (%) (human, po) | Toothache, subjects with TEAE n (%) (human, po) | Tremor, subjects with TEAE n (%) (human, po) | Uvulitis, subjects with TEAE n (%) (human, po) | Vertigo, subjects with TEAE n (%) (human, po) | Vomiting, subjects with TEAE n (%) (human, po) | feeling hot, incidence of subjects (human, po) | hot flush, incidence of subjects (human, po) | subjects who experienced seizures (po) |
| --- | --- | --- | --- | --- | --- | --- | --- | --- | --- | --- | --- | --- | --- | --- | --- | --- | --- | --- | --- |
| COc1ccc2c3c1O[C@H]1C(=O)CC[C@@]4(O)[C@@H](C2)N(C)CC[C@]314.Cl [Oxycodone HCl] | (29.5%) | 0% | (9.1%) | (27.3%) | 0% | (4.5%) | (6.8%) | (22.7%) | (56.8%) | (9.1%) | 0% | 0% | 0% | 0% | 0% | (15.9%) | 2.3% | 11.4% |  |
| COc1cccc(C2(O)CCCCC2CN(C)C)c1 (centres unmarked) [Tramadol HCl] | (25.6%) | 0% | (2.6%) | (35.9%) | (5.1%) | (7.7%) | (2.6%) |  | (66.7%) | (7.7%) | 0% | 0% | 0% | (2.6%) | (2.6%) |  | 2.5% | 12.8% | two subjects experienced seizures |
